# Experimental data: patent publication US7994113B2, “βGBP, compositions comprising βGBP, and related methods and uses thereof” (priority 2007, dated 2011)
# Read-outs that look alike come from different tables or passages of the source.
# What was measured:
# [1] = system: MCF10A mammary ductal cells; assay: Growth rate and Annexin V apoptosis of naïve MCF10A cells; type: cell-based
# [2] = system: Akt; assay: Western blot of phosphorylated (Ser473) Akt and total Akt protein; type: cell-based; details: 30 nM Hu-r-βGBP
# Experimental: Western blot analysis: Cells were lysed in 50 mM Tris pH7.4. 150 mM NaCl, 1% TritonX-100, 1 mMPMSF, 2.5 μg/ml leupeptin, 1% aprotinin, 10 mM sodium fluoride, 1 mM sodium vanadate (Sigma, UK). 50 μg of protein were loaded onto 12% polyacrylamide gels. Phosphorylated Akt was detected using 1:1000 anti-phospho-Akt (Ser473) antibody (Cell Signalling Technology, Boston, Mass.) and total Akt1/2 protein was probed with 1:1000 anti-Akt1/2 (H136) (Santa Cruz, Santa Cruz, Calif.). Secondary antibodies conjugated to horseradish peroxidase (HRP) (GE Healthcare, UK) were used at 1:1000 dilution and visualised by enhanced chemiluminescence (GE Healthcare, UK). Actin (Sigma, UK) was used as a loading control.
# [3] = system: BT474 breast cancer cells; assay: Growth rate and apoptosis of BT474 cells treated with Hu-r-βGBP; type: cell-based; details: Hu-r-βGBP 15 or 30 nM added at hour 3 after seeding
# Experimental: (§1) Cell culture: BT474 cells were cultured in DMEM/F12 medium with 10% fetal calf serum (FCS) (Invitrogen, UK) and 20 μg/ml insulin (Sigma, UK); the SKBR3 cells were grown in DMEM medium (Invitrogen UK) plus 10% FCS. Cultures were incubated at 37° C. in a humidified atmosphere of 5% CO2 in air.
# (§2) 1×10^5 cells were seeded per 25 cm^2 flask, or 3×10^5 per 75 cm^2 flask. Sufficient numbers of flasks were seeded in parallel to allow for individual flasks to be consumed in the process of monitoring cell numbers (i.e. growth rates), apoptosis, PI3K activity, akt mRNA levels, Akt protein levels and phosphorylated Akt (P-Akt) protein levels as discussed below. Unless otherwise indicated results correspond to one flask of cells.
# (§3) Growth rates: Cells were removed from the flasks by trypsinisation and counted in a haemocytometer to assess cell numbers at time points of 1, 2, 3, 4, and 5 days for BT474 cells, SKBR3 cells, MCF10A^V12Ras cells and MCF10A^CTx cells. MCF10A cells were monitored at 1, 2, 3, and 4 days. Cell numbers were determined in triplicate. […]
# (§4) Cytofluorimetry: Apoptosis was monitored using four criteria as outlined below. […]
# (§5) Redistribution of plasma membrane phosphatidylserine was assessed using Annexin V-FITC (Pharmingen, San Diego, Calif.). […]
# (§6) Caspase 3 activity was measured by cleavage of non fluorescent PhiPhiLux to a fluorescent product (OncoImmunin, Mass.). […]
# [4] = system: ST4 (Human malignant T cell leukaemia) cells; assay: ST4 tumour growth in SCID mice, subcutaneous βGBP; type: in vivo; details: SCID mice injected s.c. with 5×10^6 ST4 cells; Hu-r-βGBP s.c. day 1 to day 16
# Experimental: 5×10^6 ST4 (Human malignant T cell leukaemia) cells were injected subcutaneously at day 0. Hu-r-βGBP was administered from day 1 to day 16 by subcutaneous injection.
# Female SCID mice were housed under standard conditions. Mice were divided into four groups of four. At age 6 weeks 5×10^6 ST4 (Human malignant T cell leukaemia) cells were injected subcutaneously (day 0).
# Hu-r-βGBP was obtained as described in Example 1.
# βGBP was administered from day 1 to day 16 by individual daily subcutaneous injection. Each group of mice received a different dosage of βGBP. 0 ng/mouse (control), 20 ng/mouse, 200 ng/mouse or 400 ng/mouse
# Tumour size was assessed at day 42 or day 90 by calliper measurement.
# [5] = system: MCF-7 breast cancer cells; assay: Growth rate of naïve MCF-7 cells; type: cell-based
# [6] = system: SKBR3 breast cancer cells; assay: Growth rate and apoptosis of SKBR3 cells treated with Hu-r-βGBP; type: cell-based; details: Hu-r-βGBP 15 or 30 nM added at hour 3 after seeding
# Experimental: as §1, §2, §3, §4, §5, §6
# [7] = system: ERK; type: cell-based
# [8] = system: SW480 colon cancer cells; assay: Growth rate of SW480 colon cancer cells with Hu-r-βGBP; type: cell-based
# Experimental: (§7) To confirm these observations three colon cancer cell lines were investigated, SW480, SW620 and LoVo. Cells were grown in culture and incubated with βGBP at varying concentrations. […] Concentrations as low as 1-2 nM have been observed as effective in inducing apoptosis (FIG. 6). It is possible that in some circumstances even lower concentrations of βGBP may be effective.
# (§8) Cell culture: SW480, SW620 and LoVo colon cancer cells were grown in Leibowitz L-15 medium with 10% fetal bovine serum in sealed flasks at 37° C. Hu-r-βGBP was added 3 hrs after seeding cells at a concentration of 1 nM or 2 nM. Control cells were grown without βGBP.
# (§9) Growth rates: Cell numbers were measured over a time course of 5 days. Cell numbers were assessed at 0, 1, 2, 3, 4, and 5 days for each cell type incubated in the presence of Hu-r-βGBP. Cell numbers were assessed in triplicate by counting in a haemocytometer as discussed above in Example 1 and compared with cell numbers for control cells grown without βGBP.
# [9] = system: breast cancer, ovarian cancer, oral cancer, prostate cancer and leukaemia cells; assay: Screen of pro-apoptotic responses to βGBP in a range of cancer types; type: cell-based
# Experimental: As described above βGBP is known to inhibit growth and/or promote apoptosis in cells from a range of cancer types.
# In breast cancer, ovarian cancer, oral cancer, prostate cancer and leukaemia cells tested for pro-apoptotic responses to βGBP, the effective dose in cell culture was 15-30 nM.
# [10] = system: MCF10A^CTx cells; type: cell-based
# [11] = system: MCF10A^V12Ras cells; assay: Growth rate and Annexin V apoptosis of MCF10A^V12Ras cells; type: cell-based; details: Hu-r-βGBP 15 or 30 nM added at hour 3
# [12] = system: akt mRNA; assay: Northern blot analysis of akt mRNA; type: cell-based; details: for akt mRNA level: 30 nM Hu-r-βGBP
# [13] = system: class IA PI3K; assay: PI3 kinase assay: immunoprecipitated enzyme from treated cells, PIP3 by competitive ELISA; type: cell-based; details: for PI3K activity: 30 nM Hu-r-βGBP
# [14] = system: LoVo colon cancer cells; assay: Growth rate of LoVo colon cancer cells with Hu-r-βGBP; type: cell-based
# Experimental: as §7, §8, §9
# [15] = system: SW620 colon cancer cells; assay: Growth rate of SW620 colon cancer cells with Hu-r-βGBP; type: cell-based
# Experimental: as §7, §8, §9
# [16] = system: MCF-7^CTx cells; type: cell-based
# [17] = system: activated T cells; details: Rabinovich et al., 1997, 1998, 1999; cited from earlier work
# [18] = MCF10A, MCF10A^V12Ras and MCF10A^CTx cells
substance,measurement,setting,value
"βGBP: Human recombinant β-galactoside binding protein expressed in E. coli; negative cell cycle regulator, anti-proliferative cytokine",response of cell proliferation to βGBP,"[1]; naïve MCF10A cells, Hu-r-βGBP 15 or 30 nM added at hour 3",minor effect
same,apoptosis after inhibition of PI3K activity and loss of akt gene function,"[1]; naïve normal-like MCF10A cells, 30 nM Hu-r-βGBP, Annexin V at day three",did not lead to apoptosis
same,phosphorylated Akt and Akt protein,"[2]; BT474 and SKBR3 cells, preceded the apoptotic process","loss of phosphorylated Akt, and loss of Akt protein"
same,Akt function (phosphorylated Akt and total Akt protein),[2]; [18],loss of Akt function
same,effect on cell replication and cell death,[3],"virtually no effect on cell replication until, after 2-3 generation cycles, abrupt cell death was triggered"
same,appearance of tumours,[4],totally prevent the appearance of tumours
same,effect on cell growth,"[5]; naïve MCF-7 cells, 20 nM Hu-r-βGBP added at hour 3",growth inhibitory effect
same,effect on cell replication and cell death,[6],"virtually no effect on cell replication until, after 2-3 generation cycles, abrupt cell death was triggered"
same,ERK phosphorylation,[7],no changes in ERK phosphorylation
same,concentration effective in inducing apoptosis,"[8]; SW480 cells, Hu-r-βGBP added 3 hrs after seeding, 5 days",1 to 2 nM
same,effective concentration relative to other cancer cell lines (times lower),[8]; SW480 colon cancer cells versus other cancer cell lines,15 to 30 times
same,effective dose in cell culture for pro-apoptotic responses,[9],15 to 30 nM
same,response of cell proliferation to βGBP,[10],abrupt cell death after 2-3 cell replication cycles
same,response of cell proliferation to βGBP,[11],abrupt cell death after 2-3 cell replication cycles
same,akt mRNA level,"[12]; BT474 and SKBR3 cells, within one day from addition",virtually undetectable
same,akt mRNA level,[12]; [18],virtual absence of akt mRNA
same,akt gene expression,"[12]; MCF-7^CTx cells, 20 nM Hu-r-βGBP",negated
same,PI3K activity,"[13]; BT474 and SKBR3 cells, already present at hour six, maintained throughout observation",downregulation of PI3K activity
same,PI3K activity,"[13]; MCF10A, MCF10A^V12Ras and MCF10A^CTx cells, delay from 6 to 24 hours with V12 Ras",brought down and maintained PI3K activity below basal levels
same,decrease of PI3K activity below basal levels at which akt gene expression was negated,"[13]; MCF-7^CTx cells, 20 nM Hu-r-βGBP, 10 nM wortmannin or 20 nM LY294002 added at hour 3 from seeding",~35%
same,concentration effective in inducing apoptosis,"[14]; LoVo cells, Hu-r-βGBP added 3 hrs after seeding, 5 days",1 to 2 nM
same,effective concentration relative to other cancer cell lines (times lower),[14]; LoVo colon cancer cells versus other cancer cell lines,15 to 30 times
same,concentration effective in inducing apoptosis,"[15]; SW620 cells, Hu-r-βGBP added 3 hrs after seeding, 5 days",1 to 2 nM
same,effective concentration relative to other cancer cell lines (times lower),[15]; SW620 colon cancer cells versus other cancer cell lines,15 to 30 times
same,cell death in response to βGBP,[16],succumbed to total death ahead of the naive counterparts
cholera toxin [reference compound],cell proliferation,[1],boosted
same,cell proliferation,[5],accelerated cell proliferation
same,active ERK levels,[7],raised active ERK levels
same,akt gene expression,[12],accentuated akt gene expression
same,akt mRNA levels,[12],more markedly expressed
"GAL-1: homodimers formed from βGBP, a complex with lectin-like characteristics",threshold concentration for apoptotic activity,[17],4 µg/mL
